One compound from ChEMBL document CHEMBL1149069, “SB-202742, a novel beta-lactamase inhibitor isolated from Spondias mombin” (J Nat Prod, 1994) can be followed below.

This assay deals with Beta-lactamase TEM-2 (Escherichia coli) (UniProt P62593). In words: Inhibition of Escherichia coli W3110 beta-lactamase TEM2 assessed as inhibition of nitrocefin hydrolysis at 1 ug/ml pre-incubated for 5 mins by microtiter plate assay.

Calls of active or inactive are those of the source. The rule behind the calls is not given here.

For `CC/C=C\C/C=C\C/C=C\CCCCCCCc1cccc(O)c1C(=O)O`, the result was Active.
